Laboratory results published in patent publication US11098032B2, “Pyran dervatives as CYP11A1 (cytochrome P450 monooxygenase 11A1) inhibitors” (ORION CORPORATION, priority 2016, dated 2021).

Target: T1, CYP11A1 (Homo sapiens, UniProt P05108)
T1 construct: human H295R adrenocortical carcinoma cell line was used as source of enzyme; endogenous in cells; host or cells: H295R human adrenocortical carcinoma cells
T1 sequence (P05108 40-521): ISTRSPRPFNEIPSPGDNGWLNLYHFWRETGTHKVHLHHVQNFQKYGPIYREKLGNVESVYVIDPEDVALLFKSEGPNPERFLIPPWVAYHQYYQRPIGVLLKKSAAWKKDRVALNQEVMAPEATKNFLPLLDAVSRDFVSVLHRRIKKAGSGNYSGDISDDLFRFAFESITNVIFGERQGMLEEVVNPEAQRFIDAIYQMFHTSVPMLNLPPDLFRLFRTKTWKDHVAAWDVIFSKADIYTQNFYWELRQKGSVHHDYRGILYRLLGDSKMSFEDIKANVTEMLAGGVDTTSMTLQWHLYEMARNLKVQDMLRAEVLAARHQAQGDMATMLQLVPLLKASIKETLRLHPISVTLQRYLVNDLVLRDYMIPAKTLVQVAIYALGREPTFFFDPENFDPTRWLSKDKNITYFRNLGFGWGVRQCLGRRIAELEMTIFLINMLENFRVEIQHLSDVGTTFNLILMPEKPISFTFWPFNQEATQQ
Assay: CYP11A1 inhibition: modified isocaproic acid release assay (IARA) in H295R cells
Type: cell-based
Conditions: human H295R adrenocortical carcinoma cells treated three days, 3 nM [24,25-3H]-labelled cholesterol, 1% DMSO, 10 concentrations in duplicates; read-out: IC50 of the test compounds on CYP11A1 inhibition
Protocol: The ability of the test compounds to inhibit conversion of cholesterole to pregnenolone and isocaproic acid was measured by modification of isocaproic acid release assay (IARA) described by Ruangwises et. al. (Biology of Reproduction 1991; 45(1):143-50) except that human H295R adrenocortical carcinoma cell line was used as source of enzyme and extraction was done with dextran-coated charcoal suspension (Isomaa, V. et al., Endocrinology 1982; 111(3):833-843). […] To determine the half maximal inhibitory concentration (IC50) of the test compounds on CYP11A1 inhibition, the cells were treated for three days with increasing concentrations of the test compounds in the presence of 3 nM [24,25-3H]-labelled cholesterol (American Radiolabelled Chemicals). The final DMSO concentration was 1%. Cell culture medium was extracted with dextran-coated charcoal suspension and the radiolabelled isocaproic acid was determined by mixing 100 μl of supernatant fraction in 200 μl of scintillation fluid (OptiPhase SuperMix, Perkin Elmer). Radioactivity was measured using a Microbeta scintillation counter (1450 MicroBeta Trilux, Wallac). All the test compounds were studied at 10 concentrations in duplicates.

| SMILES | IC50 [nM] |
| --- | --- |
| O=c1cc(CN2Cc3ccccc3C2)occ1OCC1CN(S(=O)(=O)c2csc(Cl)c2)C1 [Compound 30, 5-((1-((5-Chlorothiophen-3-yl)sulfonyl)azetidin-3-yl)methoxy)-2-(isoindolin-2-ylmethyl)-4H-pyran-4-one] | 150 to 300 |
| CC(=O)c1ccc(COc2coc(CN3Cc4ccccc4C3)cc2=O)cc1 [Compound 31, 5-((4-Acetylbenzyl)oxy)-2-(isoindolin-2-ylmethyl)-4H-pyran-4-one] | 150 to 300 |
| CN(C)C(=O)c1ccc(COc2coc(CN3Cc4cccc(F)c4C3)cc2=O)cc1 [Compound 32, 4-(((6-((4-Fluoroisoindolin-2-yl)methyl)-4-oxo-4H-pyran-3-yl)oxy)methyl)-N,N-dimethylbenzamide] | 301 to 2000 |
| CC(C)(O)c1ccc(COc2coc(CN3Cc4cccc(F)c4C3)cc2=O)cc1 [Compound 33, 2-((4-Fluoroisoindolin-2-yl)methyl)-5-((4-(2-hydroxypropan-2-yl)benzyl)oxy)-4H-pyran-4-one] | 301 to 2000 |
| CS(=O)(=O)c1ccc(COc2coc(CN3Cc4ccccc4C3)cc2=O)c(F)c1 [Compound 34, 5-((2-Fluoro-4-(methylsulfonyl)benzyl)oxy)-2-(isoindolin-2-ylmethyl)-4H-pyran-4-one] | 150 to 300 |
| O=c1cc(CN2Cc3ccccc3C2)occ1OCC1CCS(=O)(=O)CC1 [Compound 35, 5-((1,1-Dioxidotetrahydro-2H-thiopyran-4-yl)methoxy)-2-(isoindolin-2-yl-methyl)-4H-pyran-4-one] | 301 to 2000 |
| O=c1cc(CN2Cc3ccccc3C2)occ1OCC1CCN(S(=O)(=O)C2COC2)CC1 [Compound 36, 2-(Isoindolin-2-ylmethyl)-5-((1-(oxetan-3-ylsulfonyl)piperidin-4-yl)methoxy)-4H-pyran-4-one] | < 150 |
| CS(=O)(=O)c1ccc(COc2coc(CN3Cc4ccc(OC(F)(F)F)cc4C3)cc2=O)cc1 [Compound 37, 5-((4-(Methylsulfonyl)benzyl)oxy)-2-((5-(trifluoromethoxy)isoindolin-2-yl)-methyl)-4H-pyran-4-one] | < 150 |
| O=c1cc(CN2Cc3ccccc3C2)occ1OCc1ccc([N+](=O)[O-])cc1 [Compound 38, 2-(Isoindolin-2-ylmethyl)-5-((4-nitrobenzyl)oxy)-4H-pyran-4-one] | 301 to 2000 |
| O=c1cc(CN2Cc3ccccc3C2)occ1OCc1ccc(-n2cc(Br)cn2)cc1 [Compound 39, 5-((4-(4-Bromo-1H-pyrazol-1-yl)benzyl)oxy)-2-(isoindolin-2-ylmethyl)-4H-pyran-4-one] | 150 to 300 |
| CCOC(=O)c1cnn(-c2ccc(COc3coc(CN4Cc5ccccc5C4)cc3=O)cc2)c1 [Compound 40, Ethyl 1-(4-(((6-(isoindolin-2-ylmethyl)-4-oxo-4H-pyran-3-yl)oxy)methyl)phenyl)-1H-pyrazole-4-carboxylate] | 301 to 2000 |
| N#Cc1ccc(COc2coc(CN3CCc4ccccc4C3)cc2=O)cc1 [Compound 41, 4-(((6-((3,4-Dihydroisoquinolin-2(1H)-yl)methyl)-4-oxo-4H-pyran-3-yl)oxy)-methyl)benzonitrile] | 301 to 2000 |
| Cc1ccc(COc2coc(CN3CCc4ccccc4C3)cc2=O)cc1 [Compound 42, 2-((3,4-Dihydroisoquinolin-2(1H)-yl)methyl)-5-((4-methylbenzyl)oxy)-4H-pyran-4-one] | 301 to 2000 |
| NC(=O)c1ccc(COc2coc(CN3CCc4ccccc4C3)cc2=O)cc1 [Compound 43, 4-(((6-((3,4-Dihydroisoquinolin-2(1H)-yl)methyl)-4-oxo-4H-pyran-3-yl)oxy)-methyl)benzamide] | 301 to 2000 |
| CC(C)(O)c1ccc(COc2coc(CN3CCc4ccccc4C3)cc2=O)cc1 [Compound 44, 2-((3,4-dihydroisoquinolin-2(1H)-yl)methyl)-5-((4-(2-hydroxypropan-2-yl)-benzyl)oxy)-4H-pyran-4-one] | < 150 |
| N#Cc1ccc(COc2coc(CN3Cc4ccccc4C3)cc2=O)cc1 [Compound 45, 4-(((6-(Isoindolin-2-ylmethyl)-4-oxo-4H-pyran-3-yl)oxy)methyl)benzonitrile] | 301 to 2000 |
| CC(C)(O)Cc1ccc(COc2coc(CN3CCc4ccccc4C3)cc2=O)cc1 [Compound 46, 2-((3,4-Dihydroisoquinolin-2(1H)-yl)methyl)-5-((4-(2-hydroxy-2-methyl-propyl)benzyl)oxy)-4H-pyran-4-one] | 150 to 300 |
| C=C(C)c1ccc(COc2coc(CN3Cc4ccccc4C3)cc2=O)cc1 [Compound 47] | < 150 |
| CNC(=O)c1ccc(COc2coc(CN3CCc4ccccc4C3)cc2=O)cc1 [Compound 48, 4-(((6-((3,4-Dihydroisoquinolin-2(1H)-yl)methyl)-4-oxo-4H-pyran-3-yl)oxy)-methyl)-N-methylbenzamide] | 301 to 2000 |
| CC(C)(O)c1ccc(COc2coc(CN3Cc4ccccc4C3)cc2=O)cc1 [Compound 49, 5-((4-(2-Hydroxypropan-2-yl)benzyl)oxy)-2-(isoindolin-2-ylmethyl)-4H-pyran-4-one] | < 150 |
| N#Cc1cccc(COc2coc(CN3CCc4ccccc4C3)cc2=O)c1 [Compound 50, 3-(((6-((3,4-Dihydroisoquinolin-2(1H)-yl)methyl)-4-oxo-4H-pyran-3-yl)oxy)-methyl)benzonitrile] | 301 to 2000 |
| N#Cc1ccc(COc2coc(CN3CCc4ccccc4C3)cc2=O)c(F)c1 [Compound 51, 4-(((6-((3,4-Dihydroisoquinolin-2(1H)-yl)methyl)-4-oxo-4H-pyran-3-yl)oxy)-methyl)-3-fluorobenzonitrile] | 301 to 2000 |
| COc1ccc2c(c1)CCN(Cc1cc(=O)c(OCc3ccc(C(C)(C)O)cc3)co1)C2 [Compound 52, 5-((4-(2-Hydroxypropan-2-yl)benzyl)oxy)-2-((6-methoxy-3,4-dihydroisoquinolin-2(1H)-yl)methyl)-4H-pyran-4-one] | 301 to 2000 |
| COc1ccc2c(c1)CCN(Cc1cc(=O)c(OCc3ccc(C#N)cc3)co1)C2 [Compound 53, 4-(((6-((6-Methoxy-3,4-dihydroisoquinolin-2(1H)-yl)methyl)-4-oxo-4H-pyran-3-yl)oxy)methyl)benzonitrile] | 150 to 300 |
| NC(=O)c1ccc(COc2coc(CN3CCc4ccccc4C3)cc2=O)c(F)c1 [Compound 55, 4-(((6-((3,4-Dihydroisoquinolin-2(1H)-yl)methyl)-4-oxo-4H-pyran-3-yl)oxy)-methyl)-3-fluorobenzamide] | 301 to 2000 |
| NC(=O)c1ccc(COc2coc(CN3Cc4ccccc4C3)cc2=O)c(F)c1 [Compound 56, 3-Fluoro-4-(((6-(isoindolin-2-ylmethyl)-4-oxo-4H-pyran-3-yl)oxy)methyl)-benzamide] | 150 to 300 |
| NC(=O)c1ccc(COc2coc(CN3Cc4ccccc4C3)cc2=O)cc1 [Compound 57, 4-(((6-(Isoindolin-2-ylmethyl)-4-oxo-4H-pyran-3-yl)oxy)methyl)benzamide] | 301 to 2000 |
| O=c1cc(CN2Cc3ccccc3C2)occ1OCc1ccc(Br)cc1 [Compound 58, 5-((4-Bromobenzyl)oxy)-2-(isoindolin-2-ylmethyl)-4H-pyran-4-one] | 301 to 2000 |
| CC1c2ccccc2CCN1Cc1cc(=O)c(OCc2ccc(C(C)(C)O)cc2)co1 (centres unmarked) [Compound 59, 5-((4-(2-Hydroxypropan-2-yl)benzyl)oxy)-2-((1-methyl-3,4-dihydroisoquinolin-2(1H)-yl)methyl)-4H-pyran-4-one] | 301 to 2000 |
